# Data reported in patent publication US20110306580A1 (DONG WHA PHARMACEUTICAL CO ., LTD., priority 2009, published 2011).
# Test system: ROS17/2.8 cells
# Test: Cell growth of ROS17/2.8 cells by the MTT method (formed formazan)
# Assay type: cell-based, rat
# Conditions: for activity at 0.02 µM: Rattus norvegicus, 2×10^−5M Test Compound solution diluted 1000 fold, read-out: Amount of formed formazan, Solution 8 (Test Compound alone); for activity at 0.02 µM / Amount of formed formazan, Solution 10 (a group of a drug combination): percentage to Solution 7 addition group, about 48 hours, average ± standard deviation of four wells; for Relative index of Solution 10 (a group of a drug combination) / Amount of formed formazan, Solution 10 (a group of a drug combination): Test Compound in combination with 1α,25-dihydroxyvitamin D3; for Relative index of Solution 10 (a group of a drug combination) / Relative index of Solution 8 (Test Compound alone): amount of formed formazan, Solution 7 = 1.00
# Method: 100 μL of a 10% FCS-αMEM comprising either DMSO and ethanol (referred to as Solution 7, hereinafter), a Test Compound solution and ethanol (referred to as Solution 8, hereinafter), a 1α,25-dihydroxyvitamin D3 solution and DMSO (referred to as Solution 9, hereinafter) or a Test Compound solution and the 1α,25-dihydroxyvitamin D3 solution (referred to as Solution 10, hereinafter) was dispensed. The ROS17/2.8 cells were inoculated to a medium at a density of 5×10^3 cells/100 μL/well. After culture of the cells for about 48 hours, the effect of Test Compound and 1α,25-dihydroxyvitamin D3 on the cell growth of the ROS17/2.8 cells was evaluated using the MTT method. Namely, after culture of the cells for about 44 hours, an MTT solution (3-[4,5-dimethylthiazol-2-yl]-2,5-diphenyltetrazolium bromide 2 mg/mL) was added in an amount of 25 μL/well, and the cells were further cultured for four hours. After the medium was removed, DMSO was added in an amount of 100 μL/well so as to dissolve the formed formazan. The amount of the formed formazan was determined by measuring the absorbance (at 560 nm) of the solution by a microplate reader.
# The 10% FCS-αMEM comprising Solution 7 was prepared by diluting DMSO by 1000 fold with the 10% FCS-αMEM, and diluting ethanol by 10000 fold with the 10% FCS-αMEM. The 10% FCS-αMEM comprising Solution 8 was prepared by diluting a 2×10^−5M Test Compound solution by 1000 fold with the 10% FCS-αMEM, and diluting ethanol by 10000 fold with the 10% FCS-αMEM. The 10% FCS-αMEM comprising Solution 9 was prepared by diluting 2×10^−3M 1α,25-dihydroxyvitamin D3 solution by 10000 fold with the 10% FCS-αMEM, and diluting DMSO by 1000 fold with the 10% FCS-αMEM. The 10% FCS-αMEM comprising Solution 10 was prepared by diluting a 2×10^−5M Test Compound solution by 1000 fold with the 10% FCS-αMEM, and diluting 2×10^−3M 1α,25-dihydroxyvitamin D3 solution by 10000 fold with the 10% FCS-αMEM.
# The amount of the formed formazan in each solution addition group was obtained in terms of a percentage to the average value of the amounts of formed formazan in four wells in a Solution 7 addition group. All the determined values were shown in terms of the average value±standard deviation of the four wells of each solution addition group.
smiles,measurement,value
"N/C(=N\O)c1ccc(OCCCCCOc2ccc(-c3nc(-c4cccnc4)sc3Cc3ccccc3)cc2)cc1 [Compound 2, N-hydroxy-4-{5-[4-(5-benzyl-2-(pyridin-3-yl)-1,3-thiazol-4-yl]phenoxy]pentoxy}benzamidine]",activity at 0.02 µM,103 ± 3.1%
same,Relative index of Solution 10 (a group of a drug combination),1.17
same,"Amount of formed formazan, Solution 10 (a group of a drug combination)",117 ± 2.6 # %
same,Relative index of Solution 8 (Test Compound alone),1.03
"Cc1nc(-c2ccc(OCCCCCOc3ccc(/C(N)=N/O)cc3)cc2)c(CCCl)s1 [Compound 3, N-hydroxy-4-{5-[4-(5-(2-chloroethyl)-2-methyl-1,3-thiazol-4-yl)phenoxy]pentoxy}benzamidine]",activity at 0.02 µM,105 ± 3.1%
same,Relative index of Solution 10 (a group of a drug combination),1.12
same,"Amount of formed formazan, Solution 10 (a group of a drug combination)",112 ± 2.7 # %
same,Relative index of Solution 8 (Test Compound alone),1.05
"CCc1nc(-c2ccc(OCCCCCOc3ccc(/C(N)=N/O)cc3)cc2)c(CC2CCCC2)s1 [Compound 4, N-hydroxy-4-{5-[4-(5-cyclopentylmethyl-2-ethyl-1,3-thiazol-4-yl)phenoxy]pentoxy}benzamidine]",activity at 0.02 µM,105 ± 1.9%
same,Relative index of Solution 10 (a group of a drug combination),1.12
same,"Amount of formed formazan, Solution 10 (a group of a drug combination)",112 ± 1.6 # %
same,Relative index of Solution 8 (Test Compound alone),1.05
"C=Cc1sc(C)nc1-c1ccc(OCCCCCOc2ccc(/C(N)=N/O)cc2)cc1 [Compound 5, N-hydroxy-4-{5-[4-(5-vinyl-2-methyl-1,3-thiazol-4-yl)phenoxy]pentoxy}benzamidine]",activity at 0.02 µM,100 ± 3.7%
same,Relative index of Solution 10 (a group of a drug combination),1.10
same,"Amount of formed formazan, Solution 10 (a group of a drug combination)",110 ± 2.4 # %
same,Relative index of Solution 8 (Test Compound alone),1.00
"CNc1nc(-c2ccc(OCCCCCOc3ccc(/C(N)=N/O)cc3)cc2)c(CC2CCCC2)s1 [Compound 6, N-hydroxy-4-{5-[4-(5-cyclopentylmethyl-2-methylamino-1,3-thiazol-4-yl)phenoxy]pentoxy}benzamidine]",activity at 0.02 µM,103 ± 2.5%
same,Relative index of Solution 10 (a group of a drug combination),1.13
same,"Amount of formed formazan, Solution 10 (a group of a drug combination)",113 ± 1.7 ## %
same,Relative index of Solution 8 (Test Compound alone),1.03
Cc1sc(N(C)CCO)nc1-c1ccc(OCCCCCOc2ccc(/C(N)=N/O)cc2)cc1 [Compound 7],activity at 0.02 µM,109 ± 3.2%
same,Relative index of Solution 10 (a group of a drug combination),1.20
same,"Amount of formed formazan, Solution 10 (a group of a drug combination)",120 ± 2.3 ## %
same,Relative index of Solution 8 (Test Compound alone),1.09
"Cc1sc(N(C)Cc2ccccc2)nc1-c1ccc(OCCCCCOc2ccc(/C(N)=N/O)cc2)cc1 [Compound 8, N-hydroxy-4-{5-[4-(2-benzylmethylamino-5-methyl-1,3-thiazol-4-yl)phenoxy]pentoxy}benzamidine]",activity at 0.02 µM,102 ± 4.9%
same,Relative index of Solution 10 (a group of a drug combination),1.15
same,"Amount of formed formazan, Solution 10 (a group of a drug combination)",115 ± 2.3 ## %
same,Relative index of Solution 8 (Test Compound alone),1.02
"Cc1sc(N(C)Cc2cccnc2)nc1-c1ccc(OCCCCCOc2ccc(/C(N)=N/O)cc2)cc1 [Compound 9, N-hydroxy-4-{5-[4-(5-methyl-2-(methyl(pyridin-3-ylmethyl)amino)-1,3-thiazol-4-yl)phenoxy]pentoxy}benzamidine]",activity at 0.02 µM,108 ± 2.3%
same,Relative index of Solution 10 (a group of a drug combination),1.20
same,"Amount of formed formazan, Solution 10 (a group of a drug combination)",120 ± 2.1 ## %
same,Relative index of Solution 8 (Test Compound alone),1.08
"CCc1sc(N(C)Cc2ccccc2)nc1-c1ccc(OCCCCCOc2ccc(/C(N)=N/O)cc2)cc1 [Compound 10, N-hydroxy-4-{5-[4-(2-benzylmethylamino-5-ethyl-1,3-thiazol-4-yl)phenoxy]pentoxy}benzamidine]",activity at 0.02 µM,99 ± 2.5%
same,Relative index of Solution 10 (a group of a drug combination),1.11
same,"Amount of formed formazan, Solution 10 (a group of a drug combination)",111 ± 1.3 # %
same,Relative index of Solution 8 (Test Compound alone),0.99
"CC(C)c1sc(N(C)Cc2cccnc2)nc1-c1ccc(OCCCCCOc2ccc(/C(N)=N/O)cc2)cc1 [Compound 12, N-hydroxy-4-{5-[4-(5-isopropyl-2-(methyl(pyridin-3-yl-methyl)amino)-1,3-thiazol-4-yl)phenoxy]pentoxy}benzamidine]",activity at 0.02 µM,105 ± 3%
same,Relative index of Solution 10 (a group of a drug combination),1.15
same,"Amount of formed formazan, Solution 10 (a group of a drug combination)",115 ± 4.3 # %
same,Relative index of Solution 8 (Test Compound alone),1.05
"CCCCc1sc(N(C)CCN2CCOCC2)nc1-c1ccc(OCCCCCOc2ccc(/C(N)=N/O)cc2)cc1 [Compound 13, N-hydroxy-4-{5-[4-(5-butyl-2-(methyl(2-(4-morpholino)ethyl)amino)-1,3-thiazol-4-yl)phenoxy]pentoxy}benzamidine]",activity at 0.02 µM,103 ± 5.2%
same,Relative index of Solution 10 (a group of a drug combination),1.13
same,"Amount of formed formazan, Solution 10 (a group of a drug combination)",113 ± 2.1 # %
same,Relative index of Solution 8 (Test Compound alone),1.03
"CCCN(CCC)c1nc(-c2ccc(OCCCCCOc3ccc(/C(N)=N/O)cc3)cc2)c(CC2CCCC2)s1 [Compound 14, N-hydroxy-4-{5-[4-(5-cyclopentylmethyl-2-dipropylamino-1,3-thiazol-4-yl)phenoxy]pentoxy}benzamidine]",activity at 0.02 µM,103 ± 2.5%
same,Relative index of Solution 10 (a group of a drug combination),1.13
same,"Amount of formed formazan, Solution 10 (a group of a drug combination)",113 ± 1.3 # %
same,Relative index of Solution 8 (Test Compound alone),1.03
"CN(CCN1CCOCC1)c1nc(-c2ccc(OCCCCCOc3ccc(/C(N)=N/O)cc3)cc2)c(C2CCCC2)s1 [Compound 15, N-hydroxy-4-{5-[4-(5-cyclopentyl-2-(methyl(2-(4-morpholino)ethyl)amino)-1,3-thiazol-4-yl)phenoxy]pentoxy}benzamidine]",activity at 0.02 µM,103 ± 3%
same,Relative index of Solution 10 (a group of a drug combination),1.15
same,"Amount of formed formazan, Solution 10 (a group of a drug combination)",115 ± 0.8 ## %
same,Relative index of Solution 8 (Test Compound alone),1.03
"CCCN(CCC)c1nc(-c2ccc(OCCCCCOc3ccc(/C(N)=N/O)cc3)cc2)c(C(C)C)s1 [Compound 16, N-hydroxy-4-{5-[4-(5-isopropyl-2-dipropylamino-1,3-thiazol-4-yl)phenoxy]pentoxy}benzamidine]",activity at 0.02 µM,107 ± 1.3%
same,Relative index of Solution 10 (a group of a drug combination),1.18
same,"Amount of formed formazan, Solution 10 (a group of a drug combination)",118 ± 3.7 # %
same,Relative index of Solution 8 (Test Compound alone),1.07
"CC(C)c1sc(N(C)C)nc1-c1ccc(OCCCCCOc2ccc(/C(N)=N/O)cc2)cc1 [Compound 17, N-hydroxy-4-{5-[4-(5-isopropyl-2-dimethylamino-1,3-thiazol-4-yl)phenoxy]pentoxy}benzamidine]",activity at 0.02 µM,97 ± 1.3%
same,Relative index of Solution 10 (a group of a drug combination),1.13
same,"Amount of formed formazan, Solution 10 (a group of a drug combination)",113 ± 1.7 # %
same,Relative index of Solution 8 (Test Compound alone),0.97
"Cc1nc(-c2ccc(OCCCCC(=O)Nc3ccc(/C(N)=N/O)cc3)cc2)c(C(C)C)s1 [Compound 18, N-hydroxy-4-{5-[4-(5-isopropyl-2-methyl-1,3-thiazol-4-yl)phenoxy]pentanoylamino}benzamidine]",activity at 0.02 µM,106 ± 5%
same,Relative index of Solution 10 (a group of a drug combination),1.15
same,"Amount of formed formazan, Solution 10 (a group of a drug combination)",115 ± 3.0 ## %
same,Relative index of Solution 8 (Test Compound alone),1.06
"Cc1nc(-c2ccc(OCCCCCN(C)c3ccc(/C(N)=N/O)cc3)cc2)c(C(C)C)s1 [Compound 19, N-hydroxy-4-{5-[4-(5-isopropyl-2-methyl-1,3-thiazol-4-yl)phenoxy]pentylmethylamino}benzamidine]",activity at 0.02 µM,108 ± 2.7%
same,Relative index of Solution 10 (a group of a drug combination),1.19
same,"Amount of formed formazan, Solution 10 (a group of a drug combination)",119 ± 4.8 # %
same,Relative index of Solution 8 (Test Compound alone),1.08
"Cc1nc(-c2ccc(OCCCCCOc3ccc(/C(N)=N/O)c(F)c3)cc2)c(C(C)C)s1 [Compound 20, N-hydroxy-2-fluoro-4-{5-[4-(5-isopropyl-2-methyl-1,3-thiazol-4-yl)phenoxy]pentoxy}benzamidine]",activity at 0.02 µM,106 ± 3.1%
same,Relative index of Solution 10 (a group of a drug combination),1.13
same,"Amount of formed formazan, Solution 10 (a group of a drug combination)",113 ± 1.0 ## %
same,Relative index of Solution 8 (Test Compound alone),1.06
